We go through 12 compounds from US12023319B2, “Carboxylic acid aromatic amides” (priority 2016, dated 2024).

The structures appear in SMILES notation.

The target in this assay is T1, human Bradykinin B1 receptor (Homo sapiens, UniProt P46663).
T1 construct: host or cells: CHO-K1
T1 sequence (P46663 1-353): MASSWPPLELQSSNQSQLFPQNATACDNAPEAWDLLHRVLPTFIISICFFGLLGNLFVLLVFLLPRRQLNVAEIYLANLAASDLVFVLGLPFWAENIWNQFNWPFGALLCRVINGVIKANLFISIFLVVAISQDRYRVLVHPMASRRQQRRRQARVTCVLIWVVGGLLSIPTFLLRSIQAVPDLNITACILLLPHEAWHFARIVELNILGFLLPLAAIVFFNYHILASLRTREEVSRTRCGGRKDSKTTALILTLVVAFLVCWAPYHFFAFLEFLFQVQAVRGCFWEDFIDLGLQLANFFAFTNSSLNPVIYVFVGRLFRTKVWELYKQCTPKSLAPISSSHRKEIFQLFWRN
Briefly: Calcium flux assay (FLIPR), CHO-K1 cells expressing human Bradykinin B1 receptor, absence of 0.1% BSA (hB1 free IC50). It is filed as cell-based. As to conditions: absence of 0.1% BSA in assay buffer. The essentials:
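Peak FLIPR fluorescence (538 nm) after B1 agonist peptide addition gave IC50s, scaled between DMSO and full block by 20 µM Lys-(Des-Arg-Leu)-Bradykinin. Compounds were preincubated 30 min at 28° C with calcium-dye-loaded CHO-K1 cells expressing human B1, at 8 concentrations in triplicate, 1% DMSO final.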
(In general: Calcium flux is commonly read through the fluorescence of an indicator in the cells.)
Broadly, the IC50 is the concentration at which inhibition is half-maximal. As to `O=C(O)c1cc(NC(=O)C2(c3ccc(C(F)(F)F)cc3F)CC2)ccc1-c1ccc(Cl)s1` [Example 47, 2-(5-Chloro-2-thienyl)-5-[({1-[2-fluoro-4-(trifluoromethyl)phenyl]cyclopropyl}carbonyl)amino]benzoic acid], the IC50 worked out at 230 nM.
Take `O=C(O)c1cc(NC(=O)C2(c3ccc(F)cc3Cl)CC2)ccc1-c1cnn(C2CCC2)c1` [Example 61, 5-({[1-(2-Chloro-4-fluorophenyl)cyclopropyl]carbonyl}amino)-2-(1-cyclobutyl-1H-pyrazol-4-yl)benzoic acid]: the half-maximal inhibitory concentration (IC50) turned out to be 200 nM.
Regarding `Cc1ccc(C2(C(=O)Nc3cc(F)c(-c4cnn(C(C)C)c4)c(C(=O)O)c3)CC2)c(F)c1` [Example 87, 3-Fluoro-5-({[1-(2-fluoro-4-methylphenyl)cyclopropyl]carbonyl}amino)-2-[1-(propan-2-yl)-1H-pyrazol-4-yl]benzoic acid], the IC50 amounted to 38 nM.
For `Cc1ccc(C2(C(=O)Nc3ccc(-c4cnc(C5CCC5)s4)c(C(=O)O)c3)CC2)c(F)c1` [Example 147, 2-(2-Cyclobutyl-1,3-thiazol-5-yl)-5-({[1-(2-fluoro-4-methylphenyl)cyclopropyl]carbonyl}amino)benzoic acid] the value was 13 nM; for `O=C(O)c1cc(NC(=O)C2(c3ccc(OC(F)(F)F)cc3)CC2)ccc1-c1cnn(C2CCC2)c1` [Example 78, 2-(1-Cyclobutyl-1H-pyrazol-4-yl)-5-[({1-[4-(trifluoromethoxy)phenyl]cyclopropyl}carbonyl)amino]benzoic acid], 300 nM.
Next, `Cc1ccc(C2(C(=O)Nc3ccc(-c4cnn(C5CCC5)c4)c(C(=O)O)c3)CC2)c(F)c1` [Example 80, 2-(1-Cyclobutyl-1H-pyrazol-4-yl)-5-({[1-(2-fluoro-4-methylphenyl)cyclopropyl]carbonyl}amino)benzoic acid]: 120 nM.
`O=C(O)c1c(-c2cnn(C3CCC3)c2)ccc(NC(=O)C2(c3ccc(OC(F)(F)F)cc3F)CC2)c1F` [Example 99, 6-(1-Cyclobutyl-1H-pyrazol-4-yl)-2-fluoro-3-[({1-[2-fluoro-4-(trifluoromethoxy)phenyl]cyclopropyl}carbonyl)amino]benzoic acid]: the IC50 is 2000 nM.
For `COc1ccc(C2(C(=O)Nc3ccc(-c4cnn(C5CCC5)c4)c(C(=O)O)c3)CC2)c(F)c1` [Example 171, 2-(1-Cyclobutyl-1H-pyrazol-4-yl)-5-({[1-(2-fluoro-4-methoxyphenyl)cyclopropyl]carbonyl}amino)benzoic acid] the value was 390 nM; for `O=C(O)c1cc(NC(=O)C2(c3ccc(C(F)(F)F)cc3F)CC2)ccc1-n1cc(C2CCC2)cn1` [Example 129, 2-(4-Cyclobutyl-1H-pyrazol-1-yl)-5-[({1-[2-fluoro-4-(trifluoromethyl)phenyl]cyclopropyl}carbonyl)amino]benzoic acid], 620 nM.
For `CC(C)n1cc(-c2c(F)cc(NC(=O)C3(c4ccc(C(F)(F)F)cc4)CC3)cc2C(=O)O)cn1` [Example 85, 3-Fluoro-2-[1-(propan-2-yl)-1H-pyrazol-4-yl]-5-[({1-[4-(trifluoromethyl)phenyl]cyclopropyl}carbonyl)amino]benzoic acid] the value was 71 nM.
For `CC[C@H](C)n1cc(-c2ccc(NC(=O)C3(c4ccc(C(F)(F)F)cc4F)CC3)cc2C(=O)O)cn1` [Example 131, 2-{1-[(2S)-Butan-2-yl]-1H-pyrazol-4-yl}-5-[({1-[2-fluoro-4-(trifluoromethyl)phenyl]cyclopropyl}carbonyl)amino]benzoic acid] the value was 50 nM; for `CC(C1CC1)n1cc(-c2ccc(NC(=O)C3(c4ccc(C(F)(F)F)cc4F)CC3)cc2C(=O)O)cn1` (stereo not drawn) [Example 153, 2-[1-(1-Cyclopropylethyl)-1H-pyrazol-4-yl]-5-[({1-[2-fluoro-4-(trifluoromethyl)phenyl]cyclopropyl}carbonyl)amino]benzoic acid], 8.7 nM.
